Results on three compounds are retold here after patent US20060198914A1, “Use of rutin and isoharmnetin for treating depressive states and depression and other emotion disorders” (Bioplanta Arzneimittel GmbH, priority 2003, published 2006).

The experiment relates to rats. In words: forced swimming test in rats. The class given is in vivo. As to the method: The antidepressive efficacy was examined by means of the so-called “forced swimming test” in rats. In performing this test rats are brought into an impasse situation (glass cylinder filled with water) over a specified period of 5 minutes. In this test the rats react with a rigor referred to as an immobilization period which is interpreted as a correlative to a depression. If the rats are treated with medicaments having an antidepressive efficacy before carrying out the test, the immobilization period is decreased. Since other psychotropic drugs such as anxiolytics or neuroleptics are not effective in this test, this test system is well suitable for detecting antidepressive effects (Porsolt et al. 1978; Porsolt, 1991). In this test all hitherto known antidepressives have to be administered over a period of several days in order to be effective (similar to the administration to patients). The test animals were treated either with the test substance or for control purposes with the solvent only or with the tricyclic antidepressive imipramine for a comparison of the efficacy.
The following tables exemplarily show the efficacy of rutin, isorhamnetin and plant extracts containing isorhamnetin derivatives or rutin in sufficient amounts. In each table the inhibition of the immobility is expressed in terms of % inhibition against the control group for comparison purposes.

Molecules are shown by their SMILES.

In the case of `C[C@@H]1O[C@@H](OC[C@H]2O[C@@H](Oc3c(-c4ccc(O)c(O)c4)oc4cc(O)cc(O)c4c3=O)[C@H](O)[C@@H](O)[C@@H]2O)[C@H](O)[C@H](O)[C@H]1O` [Rutin, 3-[[6-O-(6-deoxy-α-L-mannopyranosyl)-β-D-glucopyranosyl]oxy]-2-(3,4-dihydroxyphenyl)-5,7-dihydroxy-4H-1-benzopyran-4-one], the “Inhibition of immobility [% of the control]” value is listed as 8 % of the control (Table 1, dose 3 mg/kg); 41 % of the control (Table 1, dose 6 mg/kg); 42 % of the control (Table 1, dose 12 mg/kg); 49 % of the control (Table 1, dose 24 mg/kg); 74 % of the control (Table 1, dose 48 mg/kg).
Take `COc1cc(-c2oc3cc(O)cc(O)c3c(=O)c2O)ccc1O` [Isorhamnetin, 3,5,7-trihydroxy-2-(4-hydroxy-3-methoxyphenyl)-4H-1-benzopyran-4-one]: the “Inhibition of immobility [% of the control]” value (Table 2, dose 3 mg/kg) was 17 % of the control and the “Inhibition of immobility [% of the control]” value (Table 2, dose 10 mg/kg) is given as 56 % of the control.
With `CN(C)CCCN1c2ccccc2CCc2ccccc21` [Imipramine, imipramine, reference compound], the “Inhibition of immobility [% of the control]” value (Table 1, dose 30 mg/kg) is recorded as 46 % of the control; the “Inhibition of immobility [% of the control]” value (Table 2, dose 3 mg/kg) was 3 % of the control; the “Inhibition of immobility [% of the control]” value (Table 2, dose 10 mg/kg) is 24 % of the control. The “Inhibition [% of the control]” value is, setting by setting: (Table 3, dose 20 mg/kg) 43 % of the control; (Table 4, dose 20 mg/kg) 43 % of the control; (Table 5, dose 30 mg/kg) 64 % of the control.
